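Tested at 5 concentrations; 48 h exposure; 96-well plates; endpoints linearly interpolated, else capped at highest concentration. GI50 is the concentration that inhibits growth by half.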 Active and inactive are the calls of the source. Rule as the data show it: active = GI50 up to about 1.1 µM and inactive = higher.
Tests used:
Assay in all cases: inhibition of tumour cell growth, NCI panel, 48 h
MDA-MB-231 = system: MDA-MB-231
RXF 393 = system: RXF 393
MCF7 = system: MCF7
OVCAR-4 = system: OVCAR-4
U-251 = system: U-251
HOP-92 = system: HOP-92
EKVX = system: EKVX
HOP-62 = system: HOP-62
CAKI-1 = system: CAKI-1
UO-31 = system: UO-31
SF-268 = system: SF-268
HT-29 = system: HT-29
NCI-H226 = system: NCI-H226
M14 = system: M14
K562 = system: K562
MDA-MB-435 = system: MDA-MB-435
NCI-H460 = system: NCI-H460
NCI/ADR-RES = system: NCI/ADR-RES
SW-620 = system: SW-620
NCI-H522 = system: NCI-H522

SMILES	GI50 (MDA-MB-231)	GI50 (RXF 393)	GI50 (MCF7)	GI50 (OVCAR-4)	GI50 (U-251)	GI50 (HOP-92)	GI50 (EKVX)	GI50 (HOP-62)	GI50 (CAKI-1)	GI50 (UO-31)	GI50 (SF-268)	GI50 (HT-29)	GI50 (NCI-H226)	GI50 (M14)	GI50 (K562)	GI50 (MDA-MB-435)	GI50 (NCI-H460)	GI50 (NCI/ADR-RES)	GI50 (SW-620)	GI50 (NCI-H522)
N#CCCN(CCC#N)c1ccc(/C=C2\N=C(c3ccccc3)N(c3ccccn3)C2=O)cc1	> 100 µM (inactive)	> 100 µM (inactive)	> 100 µM (inactive)	> 100 µM (inactive)	> 100 µM (inactive)	> 100 µM (inactive)	> 100 µM (inactive)	> 100 µM (inactive)	> 100 µM (inactive)	> 100 µM (inactive)	> 100 µM (inactive)	> 100 µM (inactive)	> 100 µM (inactive)	> 100 µM (inactive)	> 100 µM (inactive)	> 100 µM (inactive)	> 100 µM (inactive)	> 100 µM (inactive)	> 100 µM (inactive)	
COc1ccccc1N1C(=O)/C(=C\c2ccccc2)SC1c1cc(OC)c(OC)c(OC)c1 (stereo unspecified)	23.2 µM (inactive)		32.3 µM (inactive)	53.5 µM (inactive)	27.1 µM (inactive)	34.5 µM (inactive)	37.8 µM (inactive)	46.7 µM (inactive)	34.2 µM (inactive)	45.4 µM (inactive)	48.5 µM (inactive)	33.3 µM (inactive)	> 100 µM (inactive)	35.1 µM (inactive)	41.7 µM (inactive)	17.9 µM (inactive)		32.1 µM (inactive)		22.2 µM (inactive)
CCOC(=O)c1nc2ccc(C(F)(F)F)cc2nc1Oc1ccc(C#N)cc1	12.9 µM (inactive)	20 µM (inactive)	18.2 µM (inactive)	29.6 µM (inactive)	26.3 µM (inactive)	17 µM (inactive)	14 µM (inactive)	15.5 µM (inactive)	20.3 µM (inactive)	40.3 µM (inactive)	15.5 µM (inactive)	23.3 µM (inactive)	11.3 µM (inactive)	18.5 µM (inactive)	> 100 µM (inactive)	42.9 µM (inactive)	46.7 µM (inactive)	18.2 µM (inactive)	40.3 µM (inactive)	
CCOP(=O)(OCC)C(C)(CC)NC1=NC(C(F)(F)F)(C(F)(F)F)NC(=O)N1 (stereo unspecified)	> 100 µM (inactive)	> 100 µM (inactive)	> 100 µM (inactive)	> 100 µM (inactive)	> 100 µM (inactive)	> 100 µM (inactive)	> 100 µM (inactive)	> 100 µM (inactive)	> 100 µM (inactive)	> 100 µM (inactive)	> 100 µM (inactive)	> 100 µM (inactive)	11.3 µM (inactive)	> 100 µM (inactive)	> 100 µM (inactive)	> 100 µM (inactive)	> 100 µM (inactive)	> 100 µM (inactive)	> 100 µM (inactive)	
C=CCC(C(=O)Nc1cccc2nc[nH]c12)C(=O)OCC (stereo unspecified)	> 100 µM (inactive)		> 100 µM (inactive)	43.1 µM (inactive)	> 100 µM (inactive)	> 100 µM (inactive)	> 100 µM (inactive)	> 100 µM (inactive)		> 100 µM (inactive)	> 100 µM (inactive)	> 100 µM (inactive)	> 100 µM (inactive)	> 100 µM (inactive)	> 100 µM (inactive)	> 100 µM (inactive)	> 100 µM (inactive)	83.6 µM (inactive)	> 100 µM (inactive)	> 100 µM (inactive)
CC[C@H](CC[C@@H](C)[C@H]1CC[C@H]2[C@@H]3CC=C4C[C@@H](O)CC[C@]4(C)[C@H]3CC[C@]12C)C(C)C [BETA-SITOSTEROL]	> 100 µM (inactive)		> 100 µM (inactive)	> 100 µM (inactive)	> 100 µM (inactive)	> 100 µM (inactive)	> 100 µM (inactive)	> 100 µM (inactive)	> 100 µM (inactive)	> 100 µM (inactive)	> 100 µM (inactive)	> 100 µM (inactive)	> 100 µM (inactive)	> 100 µM (inactive)	> 100 µM (inactive)	> 100 µM (inactive)	> 100 µM (inactive)	> 100 µM (inactive)	> 100 µM (inactive)	> 100 µM (inactive)
O=[N+]([O-])c1ccccc1S(=O)(=O)c1cc(Cl)cc2c1NCCC2	34.1 µM (inactive)	63 µM (inactive)	39.4 µM (inactive)	> 100 µM (inactive)		91.2 µM (inactive)	> 100 µM (inactive)	> 100 µM (inactive)	60.4 µM (inactive)	50.2 µM (inactive)	> 100 µM (inactive)	70.3 µM (inactive)	45.5 µM (inactive)	63 µM (inactive)	37.5 µM (inactive)	35.5 µM (inactive)	77.3 µM (inactive)	> 100 µM (inactive)	> 100 µM (inactive)	
CC(C)(/C=N/O)/[N+]([O-])=C/c1ccccc1	> 100 µM (inactive)	> 100 µM (inactive)	> 100 µM (inactive)	> 100 µM (inactive)	> 100 µM (inactive)	> 100 µM (inactive)	> 100 µM (inactive)	> 100 µM (inactive)	> 100 µM (inactive)	> 100 µM (inactive)	> 100 µM (inactive)	> 100 µM (inactive)	> 100 µM (inactive)	> 100 µM (inactive)		> 100 µM (inactive)	> 100 µM (inactive)	> 100 µM (inactive)	> 100 µM (inactive)	
Cc1cccc(-c2cccc(COCc3cccc(-c4cccc(CO)n4)n3)n2)n1	24.2 µM (inactive)		36.2 µM (inactive)	> 50 µM (inactive)	> 50 µM (inactive)	47.2 µM (inactive)	35.5 µM (inactive)	> 50 µM (inactive)	34.4 µM (inactive)	> 50 µM (inactive)	> 50 µM (inactive)	40.8 µM (inactive)	> 50 µM (inactive)	34.4 µM (inactive)	> 50 µM (inactive)	> 50 µM (inactive)	43.8 µM (inactive)	5.26 µM (inactive)	> 50 µM (inactive)	> 50 µM (inactive)
CSC1=N/C(=C\c2ccc(Cl)cc2)C(=O)N1CN1CCOCC1	43 µM (inactive)		5.75 µM (inactive)	21 µM (inactive)	27 µM (inactive)	0.308 µM (active)	53.5 µM (inactive)	23.4 µM (inactive)		23 µM (inactive)	18.2 µM (inactive)	27.5 µM (inactive)	46.8 µM (inactive)	39 µM (inactive)	33 µM (inactive)	58.3 µM (inactive)		40.6 µM (inactive)	36.7 µM (inactive)	30.7 µM (inactive)
Nc1ccccc1C(=O)CC1OC(=O)c2ccccc21 (stereo unspecified)	> 100 µM (inactive)		> 100 µM (inactive)	65.5 µM (inactive)	48.4 µM (inactive)	> 100 µM (inactive)	34.9 µM (inactive)	91 µM (inactive)		> 100 µM (inactive)	69.3 µM (inactive)	> 100 µM (inactive)	> 100 µM (inactive)	> 100 µM (inactive)	> 100 µM (inactive)	57.4 µM (inactive)	61.2 µM (inactive)	60.1 µM (inactive)	> 100 µM (inactive)	> 100 µM (inactive)
COc1ccc(-c2cc(-c3ccc(Nc4ccnc5cc(C(F)(F)F)ccc45)cc3)nc(N)c2C#N)cc1	99.8 µM (inactive)	> 100 µM (inactive)	35.9 µM (inactive)	27.7 µM (inactive)	75 µM (inactive)	26.1 µM (inactive)	> 100 µM (inactive)	43.6 µM (inactive)	> 100 µM (inactive)	> 100 µM (inactive)		> 100 µM (inactive)	> 100 µM (inactive)	96.8 µM (inactive)	> 100 µM (inactive)	> 100 µM (inactive)	> 100 µM (inactive)	> 100 µM (inactive)	62.1 µM (inactive)	
CC1=NN(c2nc(N)nc(/C(C#N)=C\c3cccc([N+](=O)[O-])c3)n2)C(C)(C)C1	9.29 µM (inactive)	5.19 µM (inactive)	6.82 µM (inactive)	10 µM (inactive)	6.78 µM (inactive)	> 24.4 µM (inactive)	29.9 µM (inactive)	5.13 µM (inactive)	12.4 µM (inactive)	5.32 µM (inactive)	10.7 µM (inactive)	11.7 µM (inactive)		20 µM (inactive)	11.9 µM (inactive)	11.2 µM (inactive)	4.31 µM (inactive)	18.8 µM (inactive)	8.75 µM (inactive)	2.92 µM (inactive)
COc1cc2c(cc1OCCCCOc1cc3c(cc1OC)C(=O)N1CCC[C@H]1C(=O)N3)N=C[C@@H]1CCCN1C2=O	3.11 µM (inactive)	3.59 µM (inactive)	2.72 µM (inactive)	13.1 µM (inactive)	3.93 µM (inactive)		12.5 µM (inactive)	10.9 µM (inactive)	11.6 µM (inactive)	14.8 µM (inactive)	3.82 µM (inactive)	16.6 µM (inactive)	13.5 µM (inactive)	12.9 µM (inactive)	2.28 µM (inactive)	4.2 µM (inactive)	15.8 µM (inactive)	13.4 µM (inactive)	3.29 µM (inactive)	1.12 µM (inactive)
C(/C=N/N=C1NCCCN1)=N\N=C1NCCCN1	> 100 µM (inactive)		> 100 µM (inactive)	> 100 µM (inactive)	> 100 µM (inactive)	56.5 µM (inactive)	> 100 µM (inactive)	> 100 µM (inactive)	> 100 µM (inactive)	> 100 µM (inactive)	> 100 µM (inactive)	> 100 µM (inactive)	> 100 µM (inactive)	> 100 µM (inactive)	> 100 µM (inactive)	> 100 µM (inactive)	> 100 µM (inactive)	> 100 µM (inactive)	> 100 µM (inactive)	> 100 µM (inactive)
